Laboratory results from the NIST ThermoML archive (doi:10.1016/j.jct.2007.06.015).
± gives the expanded uncertainty stated by the source.

Columns and labels:
[1] = molar enthalpy of vaporization or sublimation; conditions: 298.15 K, Static calorimetry
[2] = Molar enthalpy of transition or fusion; conditions: Crystal; DSC
[3] = Crystal; DTA

molar enthalpy ([1]; Liquid) [kcal/mol] | molar enthalpy ([1]; Crystal) [kcal/mol] | Molar enthalpy of transition or fusion [2] [kcal/mol] | Normal melting temperature [3] [°C] | Compound
14.9 ± 0.454 |  |  |  | N[C@H]1CC[C@@H](N)CC1 [cis-1,4-cyclohexanediamine]
 | 25.1 ± 0.382 | 6.45 ± 0.167 | 69.0 ± 0.5 | N[C@H]1CC[C@H](N)CC1 [trans-1,4-cyclohexanediamine]
